# In publication PMC12692861, “Biotin-Linked Ursolic Acid Conjugates as Selective Anticancer Agents and Target-Identification Tools for Cancer Therapy” (Molecules, 2025):
# Experiments:
# 5637 = assay: Cell cycle phase fractionation by flow cytometry (PI); type: cell-based, human; conditions: 5637, 24 h, mean ± SD n=3
# From the text: (§1) Cells treated with some antiproliferative drugs are blocked from orderly progression from one stage of their mitotic cycle to the next due to inhibition of a specific stage of the cell cycle. Analysis by flow cytometry (FC) of DNA content in the nuclei of drug-treated cells is a well-established technique for evaluating the fractions of cells in each stage of the cell cycle based on their DNA content. In this study, we employed FC to examine whether treatment with UA or 5c affects the orderly cell cycle progression from G0/G1, S, and G2M before entering Mitosis (M). Figure 6 represents the effect of UA and 5c on cell cycle progression in four bladder cancer cell lines, 5637, HT-1376, T-24, and MB-49, after a […] treatment at a concentration of 12 µM. Following the treatment, nuclei suspensions from treated cells were prepared by direct cell lysis in a hypotonic solution, with simultaneous staining with PI (100 µg/mL). The resulting nuclei suspension and the samples were run on the flow cytometer and analyzed for DNA content.
# (§2) Cells cultured in 35 mm diameter, 6-well cluster plates (Corning Inc., Corning, NY, USA) overnight at a density of 0.3 × 10^6 cells/well, and treated with various compounds at selected concentrations for 24 h. After completion of treatment, cells were washed twice with PBS, followed by the addition of Propidium Iodide (PI) containing […] solution [(0.1 mg/mL PI), 50mg Na-citrate, 15 µL of IGEPAL CA-630], 1 mL in each well, and incubated for 30–45 min at 37 °C and 5% CO2. After that data acquired using the NovoCyte Quanteon Flow Cytometer was analyzed using NovoExpress software (version 1.6.1).
# T24 = assay: as above; type: cell-based, human; conditions: T24, 24 h, mean ± SD n=3
# From the text: as §1, §2
# HT-1376 [1] = assay: as above; type: cell-based, human; conditions: HT-1376, 24 h, mean ± SD n=3
# From the text: as §1, §2
# T24 cells = assay: ROS estimation with H2DCFDA; type: cell-based, human; conditions: T24, 24 h, all tested concentrations (5–40 µM)
# Procedure: (§3) Since 5c was not toxic to non-tumorigenic cells, such as MCF12A and UROtsa, these cells were excluded from experiments aimed at identifying the broad mechanism of cytotoxicity. A common mechanism by which these antioxidants induce cytotoxicity in tumor cells is by generating Reactive Oxygen Species (ROS) selectively in fast-growing tumor cells. The levels of ROS generated by 5c exposed cells were evaluated with the oxidation of 2′,7′-dichlorodihydrofluorescein diacetate (H2DCFDA). It is a cell-permeant fluorescent probe used for detecting ROS production (Thermo Scientific Inc., Waltham, MA, USA). […] Figure 3 illustrates the quantification of intracellular ROS levels in four bladder cancer cell lines, 5637, T24, HT-1376, and MB49, following treatment with UA and its biotin-conjugated derivative, compound 5c.
# (§4) The relative levels of intracellular ROS produced in untreated and drug-treated cells were analyzed by fluorimetry using the fluorescent probe H2DCFDA (Sigma-Aldrich, #D6883, St. Louis, MI, USA), as described previously. Briefly, cells cultured in a 96-well plate at 1 × 10^4 cells per well were treated with drugs of interest for 24 h rinsed with sterile PBS to remove excess drugs, and incubated with 10 μM DCFDA for 30 min at 37 °C and 5% CO2. Following three rinses with PBS, the fluorescence intensity was recorded at excitation: 485/20, emission: 528/20 using a BioTek Synergy HTX Multimode fluorescence plate reader (Agilent Technologies, Inc., Santa Clara, CA, USA), and the data were represented as percentage change compared to the respective untreated control.
# (§5) Figure 3 Estimation of oxidative stress: Treatment with UA or 5c increased ROS levels in various bladder cancer cells. ROS levels were estimated at 24 h using DCFDA. The relative fluorescence unit (RFU) was normalized to that observed in untreated cells and expressed as a percent increase. Data are Means ± SD, (n = 4). Relative significance, expressed as p-value are calculated based on one-way ANOVA.
# MB49 cells = assay: ROS estimation with H2DCFDA; type: cell-based, murine; conditions: MB49, 24 h; for ROS levels: 5–40 µM
# Procedure: as §3, §4, §5
# UROtsa = assay: MTT assay, non-tumorigenic immortalized urothelial cell line; type: cell-based, human; conditions: for IC50: Homo sapiens, MTT, 72 h, non-tumorigenic cells, read-out: IC50 ± SD, UROtsa
# Procedure: The synthesized hybrid conjugates 5a–d were evaluated for their antiproliferative activity against the established human bladder cancer cell lines T24 and 5637. Test compounds were dissolved in ultrapure dimethyl sulfoxide (DMSO), diluted in cell culture media, added to cells cultured in 96-well cluster wells, and incubated for 72 h. The concentration of DMSO in culture media was maintained at < 0.05%. As previously reported, the fraction of viable cells in the culture wells was compared to that in cultures with 0.05% DMSO-only using a colorimetric assay, the Methyl Tetrazolium Bromide (MTT) reduction assay. We determined the selectivity index (SI) of the compounds 5a–d against tumor cells by comparing their cytotoxicity to that of a non-tumorigenic breast epithelial cell line, MCF-12A, as well as a non-tumorigenic, immortalized urothelial cell line, UROtsa (Table 1, and Figure 2).
# (§6) The antiproliferative activities of various compounds examined in this report were measured using the MTT (3-[4,5-dimethylthiazol-2-yl]-2,5-diphenyl-tetrazolium bromide) reduction assay, as previously described. Briefly, cells were seeded at 2 × 10^3 cells per well in a 96-well plate and cultured overnight. The cells were then treated with different doses (5 µM, 10 µM, 15 µM, 20 µM, 25 µM, 30 µM, 35 µM, 40 µM in DMSO) for 72 h. Viability of the treated cultures was estimated by conversion of MTT to the insoluble formazan after 3h incubation at 37 °C and 5% CO2. The purple-colored formazan crystals were dissolved in DMSO, and absorbance was recorded at wavelengths 570/640 nm using the Bio-Rad Benchmark Plus Microplate Reader. The percent of viable cells was calculated ODtreated cells/ODcontrol cell wells × 100.
# HT-1376 [2] = assay: MTT antiproliferative assay; type: cell-based, human; conditions: for IC50: Homo sapiens, HT-1376, MTT, 72 h, read-out: IC50 ± SD, HT-1376; for SI (selectivity index), HT-1376: IC50 UROtsa / IC50 HT-1376
# Procedure: The IC50 values indicate that 5c is effective across multiple bladder cancer cell lines (Figure 2 and Table 2).
# as §6
# [3] = tested on: bladder cancer cell lines 5637, HT-1376, T-24, MB-49; assay: Cell cycle analysis, statements across the tested cell lines; type: cell-based; conditions: for effect on cell cycle distribution: 12 µM, bladder cancer cell lines
# From the text: as §1, §2
IC50 (HT-1376 [2]) [µM],Compound,Cell-Cycle Phase-Fractions G1 5637,Cell-Cycle Phase-Fractions G2/M 5637,Cell-Cycle Phase-Fractions S 5637,Cell-Cycle Phase-Fractions G1 (T24),Cell-Cycle Phase-Fractions G2/M (T24),Cell-Cycle Phase-Fractions S (T24),Cell-Cycle Phase-Fractions G1 (HT-1376 [1]),Cell-Cycle Phase-Fractions G2/M (HT-1376 [1]),Cell-Cycle Phase-Fractions S (HT-1376 [1]),ROS levels (T24 cells),ROS levels (MB49 cells),ROS response relative to UA (MB49 cells; 30–40 µM),IC50 (UROtsa) [µM],toxicity to non-tumorigenic cells (UROtsa; UROtsa),"SI (selectivity index), HT-1376 (HT-1376 [2])",effect on cell cycle distribution [3],increase in the G1-phase population compared with untreated control ([3]; across the tested cell lines)
12.7 ± 0.4,"CC1CCC2(C(=O)OCCCCOC(=O)CCCCC3SCC4NC(=O)NC43)CCC3(C)C(=CCC4C5(C)CCC(O)C(C)(C)C5CCC43C)C2C1C [Compound 5c, 4-((5-((3aS,4S,6aR)-2-Oxohexahydro-1H-thieno [3,4-d]imidazol-4-yl)pentanoyl)oxy) butyl 3-hydroxy-urs-12-en-28-oate]",47.78 ± 0.60 % of total,16.79 ± 0.73 % of total,35.42 ± 1.33 % of total,55.10 ± 0.37 % of total,15.20 ± 0.02 % of total,29.70 ± 0.39 % of total,52.11 ± 0.06 % of total,16.15 ± 0.71 % of total,31.73 ± 0.65 % of total,comparable increases in ROS levels,concentration-dependent increase in ROS levels,more robust ROS response,62.9 ± 3.84,not toxic,4.96,G1 phase arrest,20–30%
21.9 ± 1.14,"C[C@H]1[C@H](C)CC[C@]2(C(=O)O)CC[C@]3(C)C(=CC[C@@H]4[C@@]5(C)CC[C@H](O)C(C)(C)[C@@H]5CC[C@]43C)[C@H]12 [UA, Ursolic acid]",43.52 ± 0.88 % of total,18.59 ± 2.05 % of total,37.89 ± 1.16 % of total,57.76 ± 2.60 % of total,19.95 ± 1.82 % of total,22.29 ± 0.77 % of total,52.40 ± 0.56 % of total,17.17 ± 1.04 % of total,30.43 ± 0.48 % of total,comparable increases in ROS levels,concentration-dependent increase in ROS levels,,67 ± 7.15,,3.06,more modest shift in phase distribution,
